Laboratory results published in patent US20230107742A1, “SYNERGISTIC EFFECTS, AUGMENTING ANTIMICROBAL EFFECTS OF LIPIDS” (CAPRETTO EHF., priority 2016, published 2023).

How the values were obtained:
[1] = test system: Streptococcus pneumoniae (ATCC 49619); experiment: Agar petri dish test, plates wetted with 20 μl formulation, read after 24 hours; conditions: ethanol 5% in mPEG 95% (control)
[2] = test system: Haemophilus influenza (NCTC 8468); experiment: as above; assay type: cell-based; conditions: ethanol 5% in mPEG 95% (control)
[3] = test system: Staphylococcus aureus (ATCC 25923); experiment: as above; conditions: ethanol 5% in mPEG 95% (control)
Description: Formulations according to the invention were tested towards three bacterial strains: Staphylococcus aureus (ATCC 25923), Streptococcus pneumoniae (ATCC 49619), Haemophilus influenza (NCTC 8468). The bacteria were distributed in a thin layer across a petri dish with agar. Two plates were wetted with 20 μl of each formulation. The bacteria were allowed to grow at 37° C. for 24 hours. H. influenzae and S. pneumoniae were grown under CO2, but S. aureus was grown in normal atmosphere.
Readings of results were carried out 24 hours later.

[4] = test system: Enveloped viruses, such as HSV-1, VSV and visna virus; conditions: more active than the free acid; cited from earlier work

| Structure (SMILES) | effect of ethanol alone against Streptococcus pneumoniae [1] | effect of ethanol alone against Haemophilus influenza [2] | effect of ethanol alone against Staphylococcus aureus [3] | virucidal activity relative to the corresponding free fatty acid (capric, lauric acid) [4] [fold] |
| --- | --- | --- | --- | --- |
| CCO [ethanol] | essentially no effect | essentially no effect | essentially no effect | – |
| CCCCCCCCCC(=O)OCC(O)CO (centres unmarked) [Capric acid 1-monoglyceride, capric acid 1-monoglyceride] | – | – | – | 10 |
| CCCCCCCCCCCC(=O)OCC(O)CO (centres unmarked) [lauric acid 1-monoglyceride] | – | – | – | 10 |
